Measured values: publication PMC9774391 (ACS Omega, 2022)

Assays:
[1] = Cytotoxicity test (MTT); type: cell-based; conditions: NIH/3T3 mouse embryonic fibroblast cells (ATCC CRL-1658), NIH/3T3 mouse fibroblast healthy cell line
Description: The NIH/3T3 cells were incubated according to the manufacturer’s recommendations. In 96-well plates, NIH/3T3 cells were seeded at a density of 1 × 10^4 cells per well. The MTT test was conducted in line with the previously mentioned standards.[19],[22],[23],[28],[30]

[2] = biological target: BChE (Homo sapiens, UniProt P06276); test: biochemical; conditions: for inhibition at 1000 µM: 10^–3 M; for inhibition at 100 µM: 10^–4 M
Description: (§1) According to the modified Ellman approach outlined in our team’s earlier work, the AChE and BChE inhibitory activities of the obtained compounds were evaluated.[18]−[21]

[3] = biological target: AChE (Homo sapiens, UniProt P22303); test: biochemical; conditions: for inhibition at 1000 µM: 10^–3 M; for inhibition at 100 µM: 10^–4 M
Description: as §1

[4] = biological target: T1, MAO-B (Homo sapiens, UniProt P27338); test: In vitro MAO-B inhibition assay (fluorometric); type: biochemical; conditions: for inhibition at 1000 µM: 10^–3 M; for inhibition at 100 µM: 10^–4 M; for inhibition at 10 µM: 10^–5 M; for inhibition at 1 µM: 10^–6 M; for inhibition at 0.1 µM: 10^–7 M; for inhibition at 0.01 µM: 10^–8 M; for inhibition at 0.001 µM: 10^–9 M
T1 sequence (P27338 1-520): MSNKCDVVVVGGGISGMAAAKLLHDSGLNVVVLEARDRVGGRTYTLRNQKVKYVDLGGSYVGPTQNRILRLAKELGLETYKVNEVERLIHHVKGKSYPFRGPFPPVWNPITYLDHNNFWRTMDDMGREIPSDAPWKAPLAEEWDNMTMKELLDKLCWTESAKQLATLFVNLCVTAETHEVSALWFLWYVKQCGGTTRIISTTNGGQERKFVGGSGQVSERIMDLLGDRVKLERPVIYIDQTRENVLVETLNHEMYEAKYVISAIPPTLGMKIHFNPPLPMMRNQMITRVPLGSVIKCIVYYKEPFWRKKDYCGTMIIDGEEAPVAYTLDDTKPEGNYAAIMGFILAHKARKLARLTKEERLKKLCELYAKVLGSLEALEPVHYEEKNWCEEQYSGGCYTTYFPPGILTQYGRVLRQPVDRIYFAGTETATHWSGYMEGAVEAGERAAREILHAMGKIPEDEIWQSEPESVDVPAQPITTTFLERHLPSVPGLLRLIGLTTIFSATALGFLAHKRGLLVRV

[5] = biological target: T2, MAO-A (Homo sapiens, UniProt P21397); test: In vitro MAO-A inhibition assay (fluorometric); type: biochemical; conditions: for inhibition at 1000 µM: 10^–3 M; for inhibition at 100 µM: 10^–4 M
T2 sequence (P21397 1-527): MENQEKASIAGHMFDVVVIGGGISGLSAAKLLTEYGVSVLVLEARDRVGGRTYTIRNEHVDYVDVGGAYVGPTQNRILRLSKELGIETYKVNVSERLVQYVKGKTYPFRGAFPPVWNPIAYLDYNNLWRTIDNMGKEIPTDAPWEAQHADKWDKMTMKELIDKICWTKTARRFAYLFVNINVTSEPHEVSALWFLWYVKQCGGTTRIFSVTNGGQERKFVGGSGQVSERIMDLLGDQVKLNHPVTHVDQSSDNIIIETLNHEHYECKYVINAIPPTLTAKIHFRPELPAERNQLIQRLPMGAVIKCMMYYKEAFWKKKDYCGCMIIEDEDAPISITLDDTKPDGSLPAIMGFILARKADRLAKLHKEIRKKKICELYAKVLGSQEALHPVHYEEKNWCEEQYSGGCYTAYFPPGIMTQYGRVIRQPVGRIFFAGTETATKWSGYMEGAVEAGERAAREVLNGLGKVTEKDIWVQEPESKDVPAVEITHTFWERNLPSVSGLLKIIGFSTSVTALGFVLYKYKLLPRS

[6] = DPPH free-radical scavenging activity assay; conditions: for IC50: serial dilution 10^–3–10^–9 M, read-out: IC50 on DPPH antioxidant activity
Description: This approach is based on evaluating the free-radical scavenging abilities of the stable 1,1-diphenyl-2-picrylhydrazyl (DPPH) radical. To create the DPHH solution, 9.86 mg of DPPH was weighed and diluted to 25 mL with methanol. The test wells were then filled with 100 μL of the DPPH solution and 100 μL of the test solutions. Only 200 μL of methanol was used for the blank reading, while the control reading required the usage of 100 μL each of methanol and the DPPH solution. Following incubation, a spectrophotometric measurement at 517 nm was carried out.[26],[27]

[7] = biological target: T3, Beta Amyloid 1–42 (Aβ42) (Homo sapiens, UniProt P05067); test: Beta Amyloid 1–42 (Aβ42) inhibitor screening assay; type: biochemical; conditions: read-out: % β-amyloid plaque inhibition
T3 construct: The Beta Amyloid 1–42 (Aβ42) Ligand Screening Assay kit; purchased BioVision, Milpitas, CA
From the text: The Beta Amyloid 1–42 (Aβ42) Ligand Screening Assay kit (BioVision, Milpitas, CA) technique based on the fluorometric approach served as the basis for the experimental process.[21],[28],[29]

Sequence of AChE (P22303 32-614): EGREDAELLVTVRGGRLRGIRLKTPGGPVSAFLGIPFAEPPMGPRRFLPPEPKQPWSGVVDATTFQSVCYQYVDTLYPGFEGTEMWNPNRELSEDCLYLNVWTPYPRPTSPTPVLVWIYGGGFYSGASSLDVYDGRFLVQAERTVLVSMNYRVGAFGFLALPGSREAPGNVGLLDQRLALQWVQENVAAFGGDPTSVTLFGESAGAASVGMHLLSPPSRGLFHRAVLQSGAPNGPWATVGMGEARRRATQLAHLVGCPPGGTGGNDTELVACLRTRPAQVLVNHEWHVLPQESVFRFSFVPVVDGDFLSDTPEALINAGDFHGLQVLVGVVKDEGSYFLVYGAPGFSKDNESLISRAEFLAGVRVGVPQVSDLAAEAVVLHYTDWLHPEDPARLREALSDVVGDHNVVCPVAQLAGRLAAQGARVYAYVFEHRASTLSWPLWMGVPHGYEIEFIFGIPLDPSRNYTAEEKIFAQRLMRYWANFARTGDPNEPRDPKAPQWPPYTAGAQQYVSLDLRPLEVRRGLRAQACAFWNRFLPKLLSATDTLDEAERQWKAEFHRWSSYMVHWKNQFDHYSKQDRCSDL
Sequence of BChE (P06276 29-602): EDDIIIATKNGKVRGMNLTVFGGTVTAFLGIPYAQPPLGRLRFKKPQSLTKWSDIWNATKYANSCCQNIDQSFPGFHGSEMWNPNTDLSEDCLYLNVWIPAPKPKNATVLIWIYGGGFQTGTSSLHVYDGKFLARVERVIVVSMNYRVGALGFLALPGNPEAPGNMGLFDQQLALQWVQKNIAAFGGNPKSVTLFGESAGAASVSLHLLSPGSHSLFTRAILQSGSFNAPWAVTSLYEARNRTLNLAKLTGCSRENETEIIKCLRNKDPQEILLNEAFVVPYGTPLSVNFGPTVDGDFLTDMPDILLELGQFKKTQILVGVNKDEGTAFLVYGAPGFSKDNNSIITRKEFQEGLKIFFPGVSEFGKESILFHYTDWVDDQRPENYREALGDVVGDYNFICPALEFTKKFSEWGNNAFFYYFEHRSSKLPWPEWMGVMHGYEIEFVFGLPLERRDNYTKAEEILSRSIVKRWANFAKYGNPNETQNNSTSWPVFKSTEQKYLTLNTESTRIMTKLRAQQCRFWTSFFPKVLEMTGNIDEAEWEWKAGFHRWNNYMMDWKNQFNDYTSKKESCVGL
T3 sequence (P05067 672-713 limits assumed): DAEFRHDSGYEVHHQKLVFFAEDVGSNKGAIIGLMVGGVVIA

Structure (SMILES)	IC50 [1] [µM]	inhibition at 1000 µM [2] [%]	inhibition at 100 µM [2] [%]	inhibition at 1000 µM [3] [%]	inhibition at 100 µM [3] [%]	IC50 [4] [µM]	inhibition at 1000 µM [4] [%]	inhibition at 100 µM [4] [%]	inhibition at 10 µM [4] [%]	inhibition at 1 µM [4] [%]	inhibition at 0.1 µM [4] [%]	inhibition at 0.01 µM [4] [%]	inhibition at 0.001 µM [4] [%]	inhibition at 1000 µM [5] [%]	inhibition at 100 µM [5] [%]	IC50 [6] [µM]	other results
C#CCN(C)CC(=O)Nc1ccc(/C=C2\Cc3ccc(OC)cc3C2=O)cc1 [D32]	282 ± 7.04	90.9 ± 1.29	24.7 ± 0.455	33.8 ± 0.885	26.4 ± 0.565	0.0665 ± 0.0024	94.8 ± 1.42	89.6 ± 1.27	81.5 ± 1.8	72.7 ± 1.32	59.6 ± 0.977	34.2 ± 0.514	21.5 ± 0.429	76.7 ± 1.67	29.7 ± 0.752	–	–
COc1ccc2c(c1)C/C(=C\c1ccc(NC(=O)CN(C)CCN(C)C)cc1)C2=O [D34]	75.5 ± 2.18	91.6 ± 1.03	–	98.3 ± 1.11	91.1 ± 1.36	–	78.5 ± 1.31	47.3 ± 0.676	–	–	–	–	–	82.1 ± 1.25	38.3 ± 0.458	0.302 ± 0.014	IC50 [2]: 0.132 ± 0.0051 µM; inhibition at 10 µM ([2]; 10^–5 M): 76.3 ± 1.14%; inhibition at 1 µM ([2]; 10^–6 M): 71.9 ± 1.01%; inhibition at 0.1 µM ([2]; 10^–7 M): 49.7 ± 0.856%; inhibition at 0.01 µM ([2]; 10^–8 M): 31.5 ± 0.405%; inhibition at 0.001 µM ([2]; 10^–9 M): 20.5 ± 0.399%; IC50 [3]: 0.191 ± 0.0087 µM; inhibition at 10 µM ([3]; 10^–5 M): 76 ± 1.12%; inhibition at 1 µM ([3]; 10^–6 M): 63.4 ± 0.985%; inhibition at 0.1 µM ([3]; 10^–7 M): 41.2 ± 0.528%; inhibition at 0.01 µM ([3]; 10^–8 M): 32.5 ± 0.588%; inhibition at 0.001 µM ([3]; 10^–9 M): 23.5 ± 0.429%
CCN(CC)CCN(CC)CC(=O)Nc1ccc(/C=C2\Cc3cc(OC)ccc3C2=O)cc1 [D40]	6.87 ± 0.297	95.1 ± 1.24	44.3 ± 0.642	81.3 ± 1.11	41.6 ± 0.995	0.203 ± 0.0098	–	88.8 ± 1.3	80.6 ± 1.48	65.2 ± 0.975	43.1 ± 0.662	25.7 ± 0.425	19.9 ± 0.365	84.3 ± 1.27	41.3 ± 0.577	–	–
CCN(CC)CCN(CC)CC(=O)Nc1ccc(/C=C2\Cc3ccc(OC)cc3C2=O)cc1 [D41]	5.89 ± 0.119	99.15 ± 0.704	46.3 ± 1.37	81 ± 1.6	36.6 ± 0.399	0.209 ± 0.0095	90.2 ± 1.36	81.8 ± 1.29	73.3 ± 1.42	65.4 ± 0.975	42.2 ± 0.563	32.7 ± 0.427	21.5 ± 0.385	82.8 ± 2.12	22.5 ± 0.622	–	–
O=C1O[C@H]([C@@H](O)CO)C(O)=C1O [ascorbic acid, reference compound]	–	–	–	–	–	–	–	–	–	–	–	–	–	–	–	0.165 ± 0.007	% DPPH free-radical scavenging (antioxidant) activity ([6]; 10^–3 M): 98.75% ± 1.67; % DPPH free-radical scavenging (antioxidant) activity ([6]; 10^–4 M): 95.22% ± 1.47
O=C(O)CC(O)(CC(=O)O)C(=O)O [citric acid, reference compound]	–	–	–	–	–	–	–	–	–	–	–	–	–	–	–	0.194 ± 0.009	% DPPH free-radical scavenging (antioxidant) activity ([6]; 10^–3 M): 99.48% ± 1.45; % DPPH free-radical scavenging (antioxidant) activity ([6]; 10^–4 M): 94.26% ± 1.37
COc1cc(/C=C/C(=O)CC(=O)/C=C/c2ccc(O)c(OC)c2)ccc1O [curcumin, reference compound]	–	–	–	–	–	–	–	–	–	–	–	–	–	–	–	–	inhibition at 1000 µM ([7]; 10^–3 M): 95.9 ± 1.97%; inhibition at 100 µM ([7]; 10^–4 M): 88.2 ± 2.17%
